Reference: patent US8722849B2, “Polypeptides” (Novo Nordisk A/S, priority 2011, dated 2014)
In brackets after ≈: the same amount, converted by molar mass. Read-outs that look alike come from different tables or passages of the source. Starred links: 1 amine or outer side, 2 acyl side, 3 side chain; linkers in the order of their positions; H or OH if unused. Positions of bridges follow the written chain, without caps; N, C: chain ends. Residues, ends and D or L forms follow the SMILES beside them. *: point of attachment. C20 diacid = O=C(O)CCCCCCCCCCCCCCCCCCC(=O)*; C18 diacid = O=C(O)CCCCCCCCCCCCCCCCC(=O)*; γGlu = O=C(O)[C@H](CCC(=O)[*:2])N[*:1]

Key:
[1] = Assay (IV) determination of solubility; type: physicochemical
In short: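 Eight 100 mM buffers (glycylglycine pH 3.0–5.0, bistrispropane pH 6.0–8.0) each received an equal volume of polypeptide dissolved in water at ~500 nmol/ml. Soluble polypeptide was measured by HPLC following 18 hours at room temperature and centrifugation.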

[2] = molecular target: T1, human amylin receptor (amylin 3(a) receptor: human calcitonin receptor + RAMP-3) (Homo sapiens, UniProt O60896+P30988); assay: Assay (II)a functional CRE-luciferase assay, human amylin receptor; type: cell-based; details: Table 2; BHK amylin 3(a)-receptor/CRE-luc cells
T1 construct: expressed in transfected cells; host or cells: BHK570
T1 sequence (P30988 25-474): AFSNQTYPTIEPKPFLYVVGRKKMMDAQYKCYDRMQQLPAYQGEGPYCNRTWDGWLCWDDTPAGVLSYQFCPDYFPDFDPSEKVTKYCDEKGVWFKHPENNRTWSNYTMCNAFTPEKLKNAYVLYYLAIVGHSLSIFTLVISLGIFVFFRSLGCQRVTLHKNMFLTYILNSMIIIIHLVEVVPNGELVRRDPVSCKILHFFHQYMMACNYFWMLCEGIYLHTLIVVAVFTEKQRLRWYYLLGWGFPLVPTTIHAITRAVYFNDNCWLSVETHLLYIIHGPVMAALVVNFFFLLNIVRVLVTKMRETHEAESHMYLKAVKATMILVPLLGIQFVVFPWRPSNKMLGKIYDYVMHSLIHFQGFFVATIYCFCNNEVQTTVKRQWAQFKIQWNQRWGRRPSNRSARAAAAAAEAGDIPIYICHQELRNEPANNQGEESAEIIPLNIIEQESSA
T1 sequence (O60896 24-148 partner): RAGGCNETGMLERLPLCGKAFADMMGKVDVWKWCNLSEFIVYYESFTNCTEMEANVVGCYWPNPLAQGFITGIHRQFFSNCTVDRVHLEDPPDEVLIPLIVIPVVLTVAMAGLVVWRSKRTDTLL

[3] = Assay (III) ThT fibrillation assay for physical stability; type: physicochemical
In short: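 Freshly prepared formulations, pH-adjusted, with 1 μM ThT; four or eight replicates incubated at 37 °C under 960 rpm orbital shaking. Fluorescence (ex 444/em 485 nm) read every 20 min; […]. Peptide concentration measured by RP-HPLC before and after the run.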

[4] = molecular target: T2, human calcitonin receptor (Homo sapiens, UniProt P30988); assay: Assay (II)a functional CRE-luciferase assay, human calcitonin receptor; type: cell-based; details: Table 7; human calcitonin (CTa) receptor
T2 construct: expressed in transfected cells; host or cells: BHK570
T2 sequence (P30988 25-474): T1 sequence (P30988 25-474)

[5] = bistrispropane buffer, pH 6, pH 6.0, read-out: Solubility pH 6.0
[6] = bistrispropane buffer, pH 6.5, pH 6.5, read-out: Solubility pH 6.5
[7] = bistrispropane buffer, pH 7, pH 7.0, read-out: Solubility pH 7.0
[8] = bistrispropane buffer, pH 7.5, pH 7.5, read-out: Solubility pH 7.5
[9] = bistrispropane buffer, pH 8, pH 8.0, read-out: Solubility pH 8.0
[10] = glycylglycine buffer, pH 3, pH 3.0, read-out: Solubility pH 3.0
[11] = glycylglycine buffer, pH 4, pH 4.0, 18 hours at room temperature, Table 2, read-out: Solubility pH 4.0
[12] = glycylglycine buffer, pH 4, pH 4.0, read-out: Solubility pH 4.0
[13] = glycylglycine buffer, pH 5, pH 5.0, read-out: Solubility pH 5.0
[14] = bistrispropane buffer, pH 7, pH 7.0, 18 hours at room temperature, Table 3, read-out: Solubility pH 7.0

SMILES | solubility at 18 h [1, 5] | solubility at 18 h [1, 6] | solubility at 18 h [1, 7] | solubility at 18 h [1, 8] | solubility at 18 h [1, 9] | solubility at 18 h [1, 10] | solubility at 18 h [1, 11] | solubility at 18 h [1, 12] | solubility at 18 h [1, 13] | EC50 [2] | ThT pH 4.0 lag time ([3]; ThT fibrillation assay) | ThT pH 4.0 lag time (h) ([3]; ThT fibrillation assay) | EC50 [4] | solubility at 18 h [1, 14] | solubility at 18 h ([1]; bistrispropane buffer, pH 7, pH 7.0, Table 8, read-out: Solubility pH 7.0) | ThT pH 4.0 lag time ([3]; Table 8)
CC[C@H](C)[C@H](NC(=O)[C@@H]1CCCN1C(=O)CNC(=O)[C@H](Cc1ccccc1)NC(=O)[C@H](CC(N)=O)NC(=O)[C@H](CC(N)=O)NC(=O)[C@H](CO)NC(=O)[C@H](CO)NC(=O)[C@H](Cc1c[nH]cn1)NC(=O)[C@H](Cc1c[nH]cn1)NC(=O)[C@H](CC(C)C)NC(=O)[C@H](Cc1ccccc1)NC(=O)[C@H](CCC(=O)O)NC(=O)[C@H](C)NC(=O)[C@H](CC(C)C)NC(=O)[C@H](CCCNC(=N)N)NC(=O)[C@H](CCC(N)=O)NC(=O)[C@@H](NC(=O)[C@H](C)NC(=O)[C@@H]1CSSC[C@H](NC(=O)[C@H](CCCNC(=N)N)NC(=O)CC[C@H](NC(=O)CCCCCCCCCCCCCCCCCCC(=O)O)C(=O)O)C(=O)N[C@@H](CC(N)=O)C(=O)N[C@@H]([C@@H](C)O)C(=O)N[C@@H](C)C(=O)N[C@@H]([C@@H](C)O)C(=O)N1)[C@@H](C)O)C(=O)N[C@@H](CC(C)C)C(=O)N1CCC[C@H]1C(=O)N1CCC[C@H]1C(=O)N[C@H](C(=O)N[C@@H](CC(N)=O)C(=O)N[C@H](C(=O)NCC(=O)N[C@@H](CO)C(=O)N[C@@H](Cc1c[nH]cn1)C(=O)N[C@H](C(=O)N[C@@H](Cc1ccc(O)cc1)C(N)=O)[C@@H](C)O)C(C)C)[C@@H](C)O [Example 95, N-alpha-[(S)-4-Carboxy-4-(19-carboxynonadecanoylamino)butyryl]-[Arg1,Glu14,His17,His35]-pramlintide] ({C20 diacid-γGlu}-RCNTATCATQRLAEFLHHSSNNFGPILPPTNVGSHTY-NH2; disulfide 2-7 (inferred)) | > 200 µM | 16 µM (≈ 72.1 µg/mL) | 2 µM (≈ 9.01 µg/mL) | 11 µM (≈ 49.6 µg/mL) | 51 µM (≈ 230 µg/mL) | > 200 µM | > 200 µM | > 200 µM | > 200 µM | 0.082 nM | >45 h | >45 h | 0.175 nM | – | – | –
CC[C@H](C)[C@H](NC(=O)[C@@H]1CCCN1C(=O)CNC(=O)[C@H](Cc1ccccc1)NC(=O)[C@H](CC(N)=O)NC(=O)[C@H](CCC(N)=O)NC(=O)[C@H](CO)NC(=O)[C@H](CO)NC(=O)[C@H](Cc1c[nH]cn1)NC(=O)[C@H](Cc1c[nH]cn1)NC(=O)[C@H](CC(C)C)NC(=O)[C@H](Cc1ccccc1)NC(=O)[C@H](CCC(=O)O)NC(=O)[C@H](C)NC(=O)[C@H](CC(C)C)NC(=O)[C@H](CCCNC(=N)N)NC(=O)[C@H](CCC(N)=O)NC(=O)[C@@H](NC(=O)[C@H](C)NC(=O)[C@@H]1CSSC[C@H](NC(=O)CNC(=O)CC[C@H](NC(=O)CCCCCCCCCCCCCCCCCCC(=O)O)C(=O)O)C(=O)N[C@@H](CC(N)=O)C(=O)N[C@@H]([C@@H](C)O)C(=O)N[C@@H](C)C(=O)N[C@@H]([C@@H](C)O)C(=O)N1)[C@@H](C)O)C(=O)N[C@@H](CC(C)C)C(=O)N1CCC[C@H]1C(=O)N1CCC[C@H]1C(=O)N[C@H](C(=O)N[C@@H](CC(N)=O)C(=O)N[C@H](C(=O)NCC(=O)N[C@@H](CO)C(=O)N[C@@H](CCC(N)=O)C(=O)N[C@H](C(=O)N1CCC[C@H]1C(N)=O)[C@@H](C)O)C(C)C)[C@@H](C)O [Example 137, N-alpha-[(S)-4-Carboxy-4-(19-carboxynonadecanoylamino)butyryl]-[Gly1,Glu14,His17,Gln21,Gln35,Pro37]-pramlintide] ({C20 diacid-γGlu}-GCNTATCATQRLAEFLHHSSQNFGPILPPTNVGSQTP-NH2; disulfide 2-7) | 192 µM (≈ 835 µg/mL) | > 200 µM | > 200 µM | > 200 µM | > 200 µM | > 200 µM | > 200 µM | > 200 µM | > 200 µM | 0.121 nM | 29 h | 29 h | 0.072 nM | > 200 µM | > 200 µM | 29 h
CC[C@H](C)[C@H](NC(=O)[C@@H]1CCCN1C(=O)CNC(=O)[C@H](Cc1ccccc1)NC(=O)[C@H](CC(N)=O)NC(=O)[C@H](CC(N)=O)NC(=O)[C@H](CO)NC(=O)[C@H](CO)NC(=O)[C@H](Cc1c[nH]cn1)NC(=O)[C@H](Cc1c[nH]cn1)NC(=O)[C@H](CC(C)C)NC(=O)[C@H](Cc1ccccc1)NC(=O)[C@H](CCC(=O)O)NC(=O)[C@H](C)NC(=O)[C@H](CC(C)C)NC(=O)[C@H](CCCNC(=N)N)NC(=O)[C@H](CCC(N)=O)NC(=O)[C@@H](NC(=O)[C@H](C)NC(=O)[C@@H]1CSSC[C@H](NC(=O)CC[C@H](NC(=O)CC[C@H](NC(=O)CCCCCCCCCCCCCCCCC(=O)O)C(=O)O)C(=O)O)C(=O)N[C@@H](CC(N)=O)C(=O)N[C@@H]([C@@H](C)O)C(=O)N[C@@H](C)C(=O)N[C@@H]([C@@H](C)O)C(=O)N1)[C@@H](C)O)C(=O)N[C@@H](CC(C)C)C(=O)N1CCC[C@H]1C(=O)N1CCC[C@H]1C(=O)N[C@H](C(=O)N[C@@H](CC(N)=O)C(=O)N[C@H](C(=O)NCC(=O)N[C@@H](CO)C(=O)N[C@@H](CC(N)=O)C(=O)N[C@H](C(=O)N[C@@H](Cc1ccc(O)cc1)C(N)=O)[C@@H](C)O)C(C)C)[C@@H](C)O [Example 49, N-alpha-{(S)-4-Carboxy-4-[(S)-4-Carboxy-4-(17-carboxyheptadecanoylamino)butyrylamino]butyryl}-[des1,Glu14,His17]-pramlintide] ({C18 diacid-γGlu-γGlu}-CNTATCATQRLAEFLHHSSNNFGPILPPTNVGSNTY-NH2; disulfide 1-6 (inferred)) | > 200 µM | > 200 µM | > 200 µM | > 200 µM | > 200 µM | > 200 µM | > 200 µM | > 200 µM | 27 µM (≈ 120 µg/mL) | 0.151 nM | – | 0 h | 0.527 nM | > 200 µM | – | –
